How the values were obtained:
[1] = tested on: Staphylococcus aureus; assay: Anti-biofilm effect on in vitro preformed 24-hour biofilm (CLSM, COMSTAT); assay type: cell-based; parameters: key: ↓: 20-30% decrease; ↓↓: 31-50% decrease; ↓↓↓: >51% decrease; ↔: No change; conditions: 5 μg/ml added at 24h to preformed biofilm, 16 h incubation; decrease vs control
Procedure: (§1) To determine the antibiofilm function of the variant HMGB1 (mHMGB1 (C45S)), Applicants expressed and purified human recombinant HMGB1 (rHMGB1) and recombinant variant HMGB1 (mHMGB1 (C45S)) in E. coli. In vitro preformed 24-hour biofilms formed by multiple human pathogens as indicated in Table 1 were incubated with 5 μg/ml rHMGB1 or mHMGB1 (C45S) for 16 hours. Enterococcus faecium biofilms were incubated with 20 μg/ml rHMGB1 or mHMGB1 (C45S) for 16 hours. Biofilms were washed and stained with LIVE/DEAD® stain and analyzed using a confocal laser scanning microscope and COMSTAT analysis. Applicants observed that mHMGB1 (C45S) was effective at disrupting each of the in vitro preformed biofilms as indicated by significant reduction in average thickness and biomass compared to the control (Table 1).
(§2) HMGB1 isoforms (5 μg/ml) were added at 24h to in vitro preformed bacterial biofilms. After 16 h of incubation (40h total), biofilms were washed and stained with LIVE/DEAD® followed by visualization using CLSM. Biofilms were analyzed by Comstat to calculate average thickness^a (AT) and biomass^a (BM).

[2] = tested on: Acinetobacter baumanii; assay: as above; assay type: cell-based; conditions: 5 μg/ml added at 24h to preformed biofilm, 16 h incubation; decrease vs control
Procedure: as §1, §2

[3] = tested on: Aggregatibacter actinomycetemcomitans; assay: as above; assay type: cell-based; conditions: 5 μg/ml added at 24h to preformed biofilm, 16 h incubation; decrease vs control
Procedure: as §1, §2

[4] = tested on: Burkholderia cenocepacia; assay: as above; assay type: cell-based; conditions: 5 μg/ml added at 24h to preformed biofilm, 16 h incubation; decrease vs control
Procedure: as §1, §2

[5] = tested on: Enterobacter spp.; assay: as above; assay type: cell-based; conditions: 5 μg/ml added at 24h to preformed biofilm, 16 h incubation; decrease vs control
Procedure: as §1, §2

[6] = tested on: Enterococcus faecium; assay: as above; assay type: cell-based; conditions: 20 μg/ml added at 24h to preformed biofilm, 16 h incubation; decrease vs control
Procedure: as §1, §2

[7] = tested on: Klebsiella pneumoniae; assay: as above; assay type: cell-based; conditions: 5 μg/ml added at 24h to preformed biofilm, 16 h incubation; decrease vs control
Procedure: as §1, §2

[8] = tested on: Nontypeable Haemophilus influenzae; assay: as above; assay type: cell-based; conditions: 5 μg/ml added at 24h to preformed biofilm, 16 h incubation; decrease vs control
Procedure: as §1, §2

[9] = tested on: Pseudomonas aeruginosa; assay: as above; assay type: cell-based; conditions: 5 μg/ml added at 24h to preformed biofilm, 16 h incubation; decrease vs control
Procedure: as §1, §2

[10] = tested on: Uropathogenic E. coli; assay: as above; assay type: cell-based; conditions: 5 μg/ml added at 24h to preformed biofilm, 16 h incubation; decrease vs control
Procedure: as §1, §2

[11] = tested on: NTHI strain 86-028NP biofilms; assay: Chinchilla model of experimental otitis media, clearance of preformed NTHI biofilms; assay type: in vivo; conditions: 4-day old NTHI biofilm, two doses (day 4 and 5; 5 μg each) into middle ear, scored day 6, vs diluent
Procedure: Diluent, 5 μg rHMGB1, or 5 mHMGB1 (C45S) were delivered directly to the middle ears of chinchillas at 4 and 5 days post infection with NTHI. Animals were sacrificed 24 h later and their middle ears were imaged (FIG. 1A) and blindly scored (FIG. 1B) based on the criteria described in the bottom of FIG. 1A. Bars represent SEM. ***P<0.001.
Diluent or 5 μg rHMGB1 or mHMGB1 (C45 S) were delivered directly to middle ears of chinchillas at 4 and 5 days post infection with NTHI. Animals were sacrificed 24 h later, and their middle ears were imaged (FIG. 6A) and blindly scored (FIG. 6B) based on the criteria described in the bottom of (FIG. 6A). Bars represent SEM. ***P<0.001.
To determine the antibiofilm function of mHMGB1 (C45S) in vivo, Applicants employed two distinct animal models. In the first model Applicants tested the ability of rHMGB1 and mHMGB1 (C45S) to clear preformed NTHI biofilms in Applicants' well-established chinchilla model of experimental OM (Novotny et al. 2011; 2013b; Novotny et al. 2016). Applicants first established NTHI strain 86-028NP biofilms in the chinchilla middle ear for 4 days. […] On day 6 the animals were sacrificed and the middle ears were blindly scored for the presence of any remaining biofilm. […] After 4h, mice were sacrificed and total neutrophils were quantified in peritoneal lavage.

[12] = tested on: Burkholderia cenocepacia; assay type: in vivo, C57BL/6 mice; conditions: for bacterial burden (CFUs) in BAL: 10^7 CFU intratracheally, 5 μg added simultaneously, after 18 hours, vs control
Procedure: C57BL/6 mice were infected with 10^7 CFU i.t., and simultaneously received rHMGB1 or mHMGB1 (C45S). After 18 h, (FIG. 2A) B. cenocepacia CFUs were quantified in BAL, (FIG. 2B) total host cells infiltrating into the lung were enumerated in BAL, and (FIG. 2C) BAL cells were stained with anti CD45, CD11b and Ly-6G to measure neutrophil migration. Bars represent standard deviation. *P<0.05; **P<0.005. (FIG. 2D) Lungs were collected 72 hpi. Tissue was fixed and embedded in paraffin, sectioned and stained with H&E. All panels show a magnification of 10×.
C57BL/6 mice were infected with 10^7 CFU i.t., and simultaneously received […] rHMGB1 or mHMGB1 (C45 S). (FIG. 7A) Aggregates of B. cenocepacia were visible by fluorescence microscopy in sections probed with an α-B. cenocepacia antibody. After 18 h, (FIG. 7B) CFUs were quantified in BAL, and (FIG. 7C) BAL cells were stained with α-CD45, CD11b, and Ly-6G to measure neutrophil migration. Bars represent SD. *P<0.05.
To determine the antibiofilm function of mHMGB1 (C45S) in vivo, Applicants employed two distinct animal models. In the first model Applicants tested the ability of rHMGB1 and mHMGB1 (C45S) to clear preformed NTHI biofilms in Applicants' well-established chinchilla model of experimental OM (Novotny et al. 2011; 2013b; Novotny et al. 2016). Applicants first established NTHI strain 86-028NP biofilms in the chinchilla middle ear for 4 days. Applicants then treated the 4-day old NTHI biofilm with two doses (day 4 and 5; 5 μg each) of rHMGB1, mHMGB1 (C45S) or diluent. On day 6 the animals were sacrificed and the middle ears were blindly scored for the presence of any remaining biofilm. […] In the second model, Applicants tested the ability of rHMGB1 and mHMGB1 (C45S) to inhibit biofilm development of Burkholderia cenocepacia in the murine airways. C57BL/6 mice were infected with 10^7 CFU of B. cenocepacia intratracheally and 5 μg of rHMGB1 or mHMGB1 (C45S) was added simultaneously. After 18 hours, the animals were sacrificed and bronchoalveolar lavage (BAL) and lungs were collected. […] Lastly, Applicants validated the inflammatory activity of rHMGB1 and mHMGB1 (C45S) in an in vivo chemotaxis model to determine the ability to recruit neutrophils (Orlova et al. 2007; Penzo et al. 2010). C57BL/6 mice were injected with 5 μg of either mHMGB1 (C45S) or rHMGB1 or 1 ml of 4% thioglycollate. After 4h, mice were sacrificed and total neutrophils were quantified in peritoneal lavage.

[13] = tested on: branched DNA structures; assay: Affinity to branched DNA structures; assay type: binding; conditions: effect of the C45S mutation
[14] = Consequences of bacterial dispersal from biofilm in vivo (second site infections, sepsis)
Source text: Also, this dispersal effect could result in sepsis.

[15] = tested on: Uropathogenic E. coli UTI89; assay: HMGB1 added at seeding and at 24h to UPEC biofilm; assay type: cell-based; conditions: 0.1, 1 and 5 μg/ml added at seeding and at 24h
Procedure: Applicants added HMGB1 at 0.1, 1 and 5 μg/ml at seeding and at 24h to a biofilm formed by Uropathogenic E. coli UTI89. […] Based on this information, Applicants hereby disclose a method for inhibiting, competing or titrating the binding of a deoxyribonucleic acid B II (DNABII) polypeptide to a microbial DNA in a biofilm, comprising, or alternatively consisting essentially of, or yet further consisting of, contacting the microbial DNA in the biofilm with an effective amount of an isolated or recombinant polypeptide comprising a modified high mobility group-box 1 domain (mHMGB1) comprising a C45S substitution thereby inhibiting, competing or titrating the binding of the DNABII polypeptide to the microbial DNA. The contacting can be accomplished in vitro or in vivo. Non-limiting examples of organisms that promote our cause the biofilm include one or more of Burkholderia cenocepacia, Enterobacter spp., Staphylococcus aureus, Klebsiella pneumoniae, Acinetobacter baumanii, Pseudomonas aeruginosa, Enterococcus faecium, Uropathogenic Escherichia coli (UPEC), Non-typeable Haemophilus influenzae (NTHI), and/or Aggregatibacter actinomycetemcomitans.

## mHMGB1 (C45S): variant human HMGB1 with the cysteine at position 45 substituted with serine, expressed in E. coli (MGKGDPKKPRGKMSSYAFFVQTCREEHKKKHPDASVNFSEFSKKSSERWK)
[1]
  average thickness (AT): ↓↓↓ (>51% decrease)
  biomass (BM): ↓↓↓ (>51% decrease)
[2]
  average thickness (AT): ↓↓↓ (>51% decrease)
  biomass (BM): ↓↓↓ (>51% decrease)
[3]
  average thickness (AT): ↓ (20-30% decrease)
  biomass (BM): ↓ (20-30% decrease)
[4]
  average thickness (AT): ↓↓↓ (>51% decrease)
  biomass (BM): ↓↓↓ (>51% decrease)
[5]
  average thickness (AT): ↓↓↓ (>51% decrease)
  biomass (BM): ↓↓↓ (>51% decrease)
[6]
  average thickness (AT): ↓↓ (31-50% decrease)
  biomass (BM): ↓↓ (31-50% decrease)
[7]
  average thickness (AT): ↓↓↓ (>51% decrease)
  biomass (BM): ↓↓↓ (>51% decrease)
[8]
  average thickness (AT): ↓ (20-30% decrease)
  biomass (BM): ↓ (20-30% decrease)
[9]
  average thickness (AT): ↓↓↓ (>51% decrease)
  biomass (BM): ↓↓↓ (>51% decrease)
[10]
  average thickness (AT): ↓↓↓ (>51% decrease)
  biomass (BM): ↓↓↓ (>51% decrease)
[11]
  clearing of biofilm from the middle ear (blindly scored): very effective at clearing the biofilms from the middle ear
[12]; 10^7 CFU i.t., simultaneous treatment, after 18 h, compared to rHMGB1
  B. cenocepacia CFUs in BAL compared to rHMGB1: significant decreases
[12]
  bacterial burden (CFUs) in BAL: effective at reducing the bacterial burden in BAL
[12]; mouse, in vivo
  inflammatory cell infiltration compared to rHMGB1: significant decreases
  lung damage (H&E): more resembled uninfected mouse lungs
[13]
  affinity to branched DNA structures: increases the affinity of the molecule to branched DNA structures
[14]
  second site infections or sepsis after dispersal of bacteria from biofilm: None of these consequences has been observed

## rHMGB1: recombinant HMGB1 derived from a human, expressed and purified in E. coli, used as comparator to mHMGB1 (C45S) [reference compound]
[1]
  average thickness (AT): ↔
  biomass (BM): ↔
[2]
  average thickness (AT): ↓↓↓ (>51% decrease)
  biomass (BM): ↓↓ (31-50% decrease)
[3]
  average thickness (AT): ↓ (20-30% decrease)
  biomass (BM): ↓ (20-30% decrease)
[4]
  average thickness (AT): ↓↓↓ (>51% decrease)
  biomass (BM): ↓↓↓ (>51% decrease)
[5]
  average thickness (AT): ↓↓↓ (>51% decrease)
  biomass (BM): ↓↓↓ (>51% decrease)
[6]
  average thickness (AT): ↓↓↓ (>51% decrease)
  biomass (BM): ↓↓↓ (>51% decrease)
[7]
  average thickness (AT): ↓↓↓ (>51% decrease)
  biomass (BM): ↓↓↓ (>51% decrease)
[8]
  average thickness (AT): ↓ (20-30% decrease)
  biomass (BM): ↓ (20-30% decrease)
[9]
  average thickness (AT): ↓↓↓ (>51% decrease)
  biomass (BM): ↓↓↓ (>51% decrease)
[10]
  average thickness (AT): ↓↓ (31-50% decrease)
  biomass (BM): ↓↓ (31-50% decrease)
[11]
  clearing of biofilm from the middle ear (blindly scored): very effective at clearing the biofilms from the middle ear
[12]
  bacterial burden (CFUs) in BAL: effective at reducing the bacterial burden in BAL
[12]; mouse, in vivo
  lung damage (H&E): severe inflammation and increased neutrophil response

B1: HMGB1: HMGB1 added to UPEC UTI89 biofilm; probably the recombinant human HMGB1 (rHMGB1) (protein, UniProt P09429 1-215, looked up)
High mobility group protein B1: MGKGDPKKPRGKMSSYAFFVQTCREEHKKKHPDASVNFSEFSKKCSERWKTMSAKEKGKFEDMAKADKARYEREMKTYIPPKGETKKKFKDPNAPKRPPSAFFLFCSEYRPKIKGEHPGLSIGDVAKKLGEMWNNTAADDKQPYEKKAAKLKEKYEKDIAAYRAKGKPDAAKKGVVKAEKSKKKKEEEEDEEDEEDEEEEEDEEDEDEEEDDDDE
[15]
  disruption of UPEC biofilms: dose-dependent disruption of UPEC biofilms
